Laboratory results reported in patent US20210369615A1, “SOLID ORAL FORMULATIONS OF AMPHOTERICIN B” (iCo Therapeutics Inc., priority 2018, published 2021).
Values joined by “and” are separate entries in the source; they are usually repeats but may differ in a detail not shown here. Equal entries are not always repeated.

Assay: Stability study: related substances (% area) after storage
Assay type: physicochemical
Experimental: A stability study was initiated for Formulation 1A and Formulation 2A. The capsules were packaged in 30 cc HDPE bottles with induction sealed PP caps and the bottles were stored under ICH stability conditions in humidity chambers at 25° C./60% RH and under accelerated conditions, 40° C./75% RH. The capsules were stored at 4-8° C. directly after preparation until they were placed into the stability chambers. […]
Another stability study was initiated for Formulation 5A. The capsules were packaged as per Formulation 1A and Formulation 2A and store under the same conditions.
An Amphotericin B/TPGS/Peceol/Gelucire 44/14 semi-solid lipid based formulation in hard shell capsule was prepared (Formulation 5A) and stored under ICH controlled stability conditions. […] The dissolution profile however decreased (Table 23 and FIG. 9). As indicated before, this behavior could be a result a recrystallization or aggregation of the AmpB.

For `C[C@@H]1[C@H](O)[C@@H](C)/C=C/C=C/C=C/C=C/C=C/C=C/C=C/[C@H](O[C@@H]2O[C@H](C)[C@@H](O)[C@H](N)[C@@H]2O)C[C@@H]2O[C@](O)(C[C@@H](O)C[C@@H](O)[C@H](O)CC[C@@H](O)C[C@@H](O)CC(=O)O[C@H]1C)C[C@H](O)[C@H]2C(=O)O` [AmpB (Corealis lot drawing 729)], the “Related Substances, Total % area” value (T = 0) was 7.67 % area, the “Related Substances, individual peak % area” value (T = 0, individual peaks ≥ 0.10%, RRT given) was 0.54 % area and 0.12 % area (2×) and 0.32 % area and 0.33 % area and 0.24 % area and 0.60 % area and 0.31 % area and 0.65 % area and 0.69 % area and 0.30 % area and 1.00 % area and 1.47 % area and 0.82 % area and 0.14 % area and the “Related Substances, Total % area” value (T = 1 month 40° C./75% RH) was 7.71 % area. The “Related Substances, individual peak % area” value (T = 1 month 40° C./75% RH, individual peaks, RRT) was 0.79 % area and 0.13 % area and 0.57 % area and 0.16 % area and 0.32 % area and 0.33 % area and 0.24 % area and 0.59 % area and 0.31 % area (2×) and 0.11 % area and 0.62 % area and 0.69 % area and 1.00 % area and 1.52 % area, the “Related Substances, Total % area” value (T = 3 months 25° C./60% RH) was 7.38 % area and the “Related Substances, individual peak % area” value (T = 3 months 25° C./60% RH, individual peaks, RRT) was 0.14 % area (2×) and 0.78 % area and 0.15 % area (3×) and 0.48 % area and 0.35 % area and 0.22 % area and 0.54 % area and 0.25 % area and 0.57 % area and 0.77 % area and 0.13 % area and 0.16 % area and 1.03 % area and 1.37 % area. The “Related Substances, Total % area” value (T = 6 months 25° C./60% RH) was 7.18 % area, the “Related Substances, individual peak % area” value (T = 6 months 25° C./60% RH, individual peaks, RRT) was 0.12 % area and 0.86 % area and 0.14 % area (2×) and 0.52 % area and 0.64 % area and 0.20 % area and 0.71 % area (2×) and 0.56 % area and 0.10 % area and 0.15 % area and 1.01 % area and 1.32 % area and the “Related Substances, Total % area” value (T = 6 months 40° C./75% RH) was 7.32 % area.
